Data reported in US6544541B1, “Devices and compounds for treating arterial restenosis” (Cardiovascular Solutions, Inc., priority 1999, dated 2003).

What was measured:
H4IIE cells = test: lactate dehydrogenase (LDH) release toxicity assay; assay type: cell-based; settings: 96 hours; FIG. 5
Protocol: To address the issue of MIBG toxicity, lactate dehydrogenase (LDH) release was measured after incubation with MIBG or MIBA. Quiescent H4IIE cells were prepared in 96-well dishes and treated with various concentrations of either MIBG or MIBA for 96 hours. To quantify the release of LDH from the cells, which only occurs if the cells are damaged or killed by the treatment, 100 μl of culture medium was transferred to a fresh dish. To this was added 100 μl of dye/catalyst mixture (Boehringer Mannheim cytotoxicity detection kitTM), and the samples were subsequently incubated for 30 minutes at 37° C. Absorbance of the solution was monitored at 490 nm. The colour intensity indicates the relative LDH content in the test samples. […] As a consequence, it is speculated that changes in LDH release may be coupled to non-toxic and reversible alterations in mitochondrial metabolism or membrane integrity as a result of MIBG treatment.

L6 myoblasts = test: L6 myoblast differentiation; assay type: cell-based; settings: 25 μM; 2.5% horse serum; 4 days; FIG. 32
[1] = test system: Friend erythroleukemia cells; test: Friend cell differentiation; assay type: cell-based
Excerpt: It is of note however that MIBG acts at a point in the differentiation pathway that is distinct from 3-aminobenzamide.

[2] = test system: porcine radial artery to coronary artery anastomoses; test: bypass graft organ culture, PCNA expression; settings: 25 μM, 14 days in culture; FIG. 18
Protocol: Analogous to the organ culture model described above, a model of a radial artery to coronary artery bypass graft has been developed. It is of note that the construction of this anastomosis is identical to that used clinically in a bypass operation. Specifically, porcine radial artery to coronary artery anstomoses were conducted and placed into culture for 14 days. Control segments included coronary artery dissected and immediately frozen or incubated for 14 days before freezing. Alternatively, the anastomoses were incubated in the presence of 25 μM MIBG. PCNA (proliferating cell nuclear antigen) was detected by immunostaining after cryosectioning of the vessels. Nuclei were visualized with Hoescht […]. The numbers of nuclei and PCNA positive nuclei were determined and used to quantify the proliferation index.

[3] = test system: porcine coronary arteries; test: coronary artery organ culture after balloon angioplasty (neointimal index); settings: 25 μM in culture media over 14 days; FIG. 10
Excerpt: Although smooth muscle cell cultures can be used to determine the ability of a compound to inhibit proliferation, these cells are not good indicators of a compound's ability to prevent restenosis. This statement stems from the fact that several processes, including cell migration, proliferation and synthesis of ECM degrading enzymes, must be coordinately activated in order for restenosis to occur. A novel organ culture system has therefore been developed in order to test the effectiveness of MIBG and other compounds at preventing restenosis (Wilson et al, 1999, Cardiac Res 42: 761-772). In brief, hearts are transported from the abattoir to the laboratory on ice. The left descending coronary artery is exposed and a balloon catheter is inserted past the first bifurcation. The balloon is inflated, and after 1 minute is deflated and withdrawn. The damaged region (approximately 20 mm in length) is excised, cut into 4 pieces of 5 mm and each piece is placed into an individual well of a culture dish. These segments can be maintained in media containing 20% serum for up to 21 days. Upon harvest of the tissue, typically after 14 days, the vessel segments are placed into resin for histological analysis. Sections are prepared from vessel segments after removal of the first 1.5 mm. […] This file is imported into SigmaScan™, and staining in the areas of the intimal and medial layers quantified. […]

H4IIE hepatoma cells [4] = test: RNA synthesis (3H-uridine incorporation) in insulin-stimulated quiescent H4IIE cells; assay type: cell-based; settings: comparison with 3-aminobenzamide; 1 μM insulin, 6 hours; FIG. 1
Protocol: Incorporation of uridine or thymidine was used to define the change in rate of […] synthesis, respectively, in response to a mitogen such as insulin. Specifically, quiescent H4IIE cells were prepared by placing the cultures (in 24-well dishes) into serum-free a-minimal essential medium for 3 days. It is of note that the normal growth media for H4IIE cells is α-MEM containing 10% fetal bovine serum (FBS). […] Cells were subsequently lysed with detergent and the nucleic acids precipitated with 5% trichloroacetic acid. The precipitated material was collected on glass fibre filters and the radioactive content measured by scintillation counting.

c-fos = c-fos gene expression by RT-PCR in human smooth muscle cells; assay type: cell-based; settings: 25 μM MIBG pretreatment (10 minutes), then IGF-1 stimulated 15 minutes
H4IIE hepatoma cells [5] = test: flow cytometry, bromodeoxyuridine incorporation in proliferating cells; assay type: cell-based; settings: 25 μM MIBG, 48 hours; FIG. 4
Protocol: Additional verification that MIBG blocked cell proliferation was obtained using flow cytometry analysis. Proliferating H4IIE cells (<40% confluent) were incubated for 48 hours in the presence or absence (untreated control or containing MIBA) of 25 μM MIBG. The cells were pulse labeled with bromodeoxyuridine (BrdU) 2 hours before harvest to label replicating DNA. Cells were released by trypsinization, collected by centrifugation and permeabilized with Triton X-100 (1%). Replicated DNA was labeled with an anti-BrdU antibody conjugated to FITC (fluorescein isothiocyanate), while total DNA was labeled with propidium iodide. The FITC and propidium iodide labels were detected at 514 nm and 600 nm, respectively, with a Coulter flow cytometer™ (excitation wavelength 488 nm), and number of cells containing these fluors were quantified. The data were plotted as cells with propidium iodide versus cells with BrdU. […] To summarize, the results described above indicate that MIBG is a potent inhibitor of cell proliferation. Furthermore, the cellular process affected by MIBG is active throughout the cell cycle. This conclusion is based on the fact that there is no accumulation of cells at a specific phase of the cell cycle. In addition, it is of note that there is no apparent decrease in cell number or an increase in smaller cells, both characteristics of cell death.

Substance: meta-iodobenzylguanidine [MIBG]
- concentration at which increased LDH release is detectable (H4IIE cells): 50 µM
- effect on L6 myoblast differentiation (L6 myoblasts): inhibits differentiation of L6 myoblasts at an early stage
- effect on Friend cell differentiation [1]: inhibits Friend cell differentiation following commitment
- increase in PCNA expression compared to segment examined immediately after dissection [2]: < 10 fold
- neointimal index [3]: effectively reduces the neointimal index to control values
- inhibition of cell growth as indicated by RNA synthesis in response to insulin (H4IIE hepatoma cells [4]): more potent inhibitor of cell growth
- c-fos mRNA levels (c-fos): equivalent to or below basal
- bromodeoxyuridine incorporation (DNA synthesis) (H4IIE hepatoma cells [5]): no bromodeoxyuridine incorporation is observed
